Measurements as given in patent US20120022121A1, “INDOLES, DERIVATIVES AND ANALOGS THEREOF AND USES THEREFOR” (priority 2007, published 2012).

Key:
[1] = system: DU-145; experiment: Cell viability SRB assay, 96 h; assay type: cell-based; conditions: Homo sapiens, DU-145, 96 h
Experimental: (§1) Cell viability (LNCaP, PC-3 prostate, DU145, PPC-1, and TSU-Pr1 prostate cancer cell lines, HT-29 colon cancer cell line, and MCF-7 breast cancer cell line) was quantitated using the sulforhodamine B (SRB) assay after 96 h coincubation with different concentrations of compound in 96-well plates. Cell viability of leukemia cells (K562 and doxorubicin-resistant K562/Dox) was quantitated by MTT assay after 96 h coincubation with different concentrations of compound in 96-well plates. Drug-induced apoptosis was determined by anti-histone ELISA assay and DNA laddering. Cell cycle progression was assessed by propidium iodide staining and fluorescence-activated cell sorting (FACS) analysis. In vitro tubulin polymerization assay was determined by CytoDYNAMIX ScreenTM3 (CDS-03) kits according to the manufacturer's instructions. Anti-apoptosis protein (Bcl-2 and Bcl-xl) and pro-apoptosis protein (Bax) were examined in LNCaP and PC-3 after 24 h incubation with different concentrations of compound 13 by Western blot assay. In vivo PC-3 xenograft studies were conducted by i.v. dosing of 50 mg/kg, 100 mg/kg and 150 mg/kg for 2 weeks.
(§2) Cells were plated in 96-well plates at a density of 800-5,000 cells/well, depending on the cell line, in their required growth media containing 10% fetal bovine serum. Preliminary studies were performed with each cell line using a variety of cell densities and incubation times to determine appropriate seeding densities. The compound of interest was dissolved in DMSO, diluted in cell culture medium (final DMSO concentration was less than 0.5% v/v), and added to quadruplicate wells at final concentrations ranging from 0 to 100 μM. Control wells to which only drug-free vehicle was added were included as negative controls.
(§3) Cells were incubated for 96 hour at 37° C. in a humidified atmosphere containing 5% carbon dioxide.
(§4) Cells were stained with SRB solution. […] WinNonlin was provided by a Pharsight Academic License to The Ohio State University.

[2] = system: PPC-1; experiment: Cell viability SRB assay, 96 h; assay type: cell-based; conditions: Homo sapiens, PPC-1, 96 h
Experimental: as §1, §2, §3, §4

[3] = system: LNCaP; experiment: Cell viability SRB assay, 96 h; assay type: cell-based; conditions: Homo sapiens
Experimental: as §1, §2, §3, §4

[4] = system: PC-3; experiment: Cell viability SRB assay, 96 h; assay type: cell-based; conditions: Homo sapiens, PC-3, 96 h
Experimental: as §1, §2, §3, §4

[5] = system: WM164; experiment: Cytotoxicity assay (SRB, 48 h); assay type: cell-based, human; conditions: Homo sapiens, WM164 melanoma
[6] = system: LNCaP; experiment: Cytotoxicity assay (SRB, 96 h); assay type: cell-based; conditions: Homo sapiens
[7] = system: A375; experiment: Cytotoxicity assay (SRB, 48 h); assay type: cell-based, human; conditions: Homo sapiens
[8] = system: PPC-1; experiment: Cytotoxicity assay (SRB, 96 h); assay type: cell-based; conditions: Homo sapiens, PPC-1, 96 h
[9] = system: Du 145; experiment: Cytotoxicity assay (SRB, 96 h); assay type: cell-based; conditions: Homo sapiens; Du 145, 96 h
[10] = system: PC-3; experiment: Cytotoxicity assay (SRB, 96 h); assay type: cell-based; conditions: Homo sapiens, PC-3, 96 h
[11] = system: melanoma and prostate cancer cell lines; experiment: Cytotoxicity assay (SRB), summary over the cell lines of Table 3; assay type: cell-based; conditions: Homo sapiens
[12] = system: TSU; experiment: Cell viability SRB assay, 96 h; assay type: cell-based; conditions: Homo sapiens, TSU (TSU-Pr1)
Experimental: as §1, §2, §3, §4

IC50 [1] | IC50 [3] | IC50 [4] | melting point | SMILES | IC50 [2] | IC50 [5] | IC50 [6] | IC50 ([7]; A-375, A375 melanoma) | IC50 [8] | IC50 [9] | IC50 [10] | IC50 [11] | IC50 ([5]; WM164, 48 h) | IC50 ([7]; A-375, 48 h, A375 melanoma) | IC50 [12]
61.5 µM | 10.1 µM | 45 µM | – | COc1cc(C(O)c2cccc(-c3cc4ccccc4n3S(=O)(=O)c3ccccc3)c2)cc(OC)c1OC (stereo not shown) [Compound 66, [3-(1-Benzenesulfonyl-1H-indol-2-yl)-phenyl]-(3,4,5-trimethoxy-phenyl)-methanol] | 35.3 µM | – | – | – | – | – | – | – | – | – | –
4.01 µM | 1.56 µM | 1.5 µM | – | O=C(c1ccc(F)cc1)c1cccc(-c2cc3ccccc3n2S(=O)(=O)c2ccccc2)c1 [Compound 126, [3-(1-Benzenesulfonyl-1H-indol-2-yl)-phenyl]-(4-fluoro-phenyl)-methanone] | 0.55 µM | – | – | – | – | – | – | – | – | – | –
– | – | – | – | COc1cc(C(=O)c2cc3ccc(Cl)cc3n2C)cc(OC)c1OC [Compound 119, (6-Chloro-1-methyl-1H-indol-2-yl)(3,4,5-trimethoxyphenyl)methanone] | – | 8.08 ± 1.21 µM | 1.04 ± 0.25 µM | 6.65 ± 0.33 µM | 4.33 ± 0.72 µM | > 10 µM | 3.76 ± 0.83 µM | – | – | – | –
11.6 µM | 5.6 µM | 13.5 µM | 82 to 85 °C | OC(c1cccc(-c2cc3ccccc3[nH]2)c1)c1cc2ccccc2[nH]1 (stereo not shown) [Compound 11, (1H-indol-2-yl)-[3-(1H-indol-2-yl)phenyl]methanol] | 3.8 µM | – | – | – | – | – | – | – | – | – | –
21.8 µM | 23.8 ± 3 µM | 65.1 ± 5.3 µM | – | OCc1cccc(-c2cc3ccccc3[nH]2)c1 [Compound 130] | 26.6 µM | – | – | – | – | – | – | – | – | – | –
– | 58.5 ± 14.3 µM | 90.4 ± 27.5 µM | – | COC(=O)c1csc(C(=O)c2c[nH]c3ccccc23)n1 [Compound 59, methyl 2-(1H-indole-3-carbonyl)thiazole-4-carboxylate] | – | – | – | – | – | – | – | – | – | – | –
– | – | – | – | COc1cc(C(=O)c2cc3ccc(F)cc3[nH]2)cc(OC)c1OC [Compound 113, (6-Fluoro-1H-indol-2-yl)(3,4,5-trimethoxyphenyl)methanone] | – | – | > 10 µM | – | > 10 µM | > 10 µM | > 10 µM | > 10 µM | > 10 µM | > 10 µM | –
18 µM | 7.8 µM | 9.2 µM | – | COc1cc(C(=O)c2cccc(-c3cc4ccccc4n3S(=O)(=O)c3ccccc3)c2)cc(OC)c1OC [Compound 67, [3-(1-Benzenesulfonyl-1H-indol-2-yl)-phenyl]-(3,4,5-trimethoxy-phenyl)-methanone] | 68.5 µM | – | – | – | – | – | – | – | – | – | –
38 µM | 4.2 µM | 11.6 µM | – | COc1cc(-c2cccc(C(O)c3cc4ccccc4n3S(=O)(=O)c3ccccc3)c2)cc(OC)c1OC (stereo not shown) [Compound 63, (1-Benzenesulfonyl-1H-indol-2-yl)-(3′,4′,5′-trimethoxy-biphenyl-3-yl)-methanol] | 21.8 µM | – | – | – | – | – | – | – | – | – | –
– | – | – | 179 to 181 °C | COc1cc(C(=O)c2cc3ccc(C)cc3[nH]2)cc(OC)c1OC [Compound 116, (6-Methyl-1H-indol-2-yl)(3,4,5-trimethoxyphenyl)methanone] | – | – | > 10 µM | – | > 10 µM | > 10 µM | > 10 µM | – | > 10 µM | > 10 µM | –
– | – | – | – | COc1cc(C(=O)c2cc3ccc(F)cc3n2C)cc(OC)c1OC [Compound 121, (6-Fluoro-1-methyl-1H-indol-2-yl)(3,4,5-trimethoxyphenyl)methanone] | – | 7.5 µM | 1.05 µM | 5.87 µM | 8.3 µM | > 10 µM | > 10 µM | 1 to 10 µM | – | – | –
– | – | – | – | COc1ccc2[nH]c(C(=O)c3cc(OC)c(OC)c(OC)c3)cc2c1 [Compound 148, (5-Methoxy-1H-indol-2-yl)(3,4,5-trimethoxyphenyl)methanone] | – | 0.04 µM | 0.05 µM | 0.03 µM | 0.05 µM | 0.08 µM | 0.04 µM | 0.05 µM | – | – | –
– | – | – | 196 to 198 °C | COc1cc(C(=O)c2cc3cc(F)ccc3[nH]2)cc(OC)c1OC [Compound 117, (5-Fluoro-1H-indol-2-yl)(3,4,5-trimethoxyphenyl)methanone] | – | – | 8.63 µM | – | 1 µM | 3.42 µM | 9.16 µM | – | 2.26 µM | 2.21 µM | –
29.2 µM | 4.9 µM | 29.2 µM | – | COc1cc(-c2cccc(C(=O)c3cc4ccccc4n3S(=O)(=O)c3ccccc3)c2)cc(OC)c1OC [Compound 64, (1-Benzenesulfonyl-1H-indol-2-yl)-(3′,4′,5′-trimethoxy-biphenyl-3-yl)-methanone] | 44.7 µM | – | – | – | – | – | – | – | – | – | 58.9 µM
1.4 µM | 3.7 µM | 2.6 µM | – | COc1ccc(C(=O)c2cccc(-c3cc4ccccc4[nH]3)c2)cc1 [Compound 84, [3-(1H-Indol-2-yl)-phenyl]-(4-methoxy-phenyl)-methanone] | 0.9 µM | – | – | – | – | – | – | – | – | – | –
2.12 µM | 1.74 µM | 2 µM | – | O=C(c1ccccc1)c1cccc(-c2cc3ccccc3[nH]2)c1 [Compound 80A, [3-(1H-Indol-2-yl)-phenyl]-phenyl-methanone] | 1.52 µM | – | – | – | – | – | – | – | – | – | –
7.2 µM | 3.1 µM | 5.9 µM | – | COc1cc(C(O)c2cccc(-c3cc4ccccc4[nH]3)c2)cc(OC)c1OC (stereo not shown) [Compound 66A, [3-(1H-Indol-2-yl)-phenyl]-(3,4,5-trimethoxy-phenyl)-methanol] | 1.9 µM | – | – | – | – | – | – | – | – | – | –
– | – | – | – | COc1cc(C(=O)c2cc3ccc(Cl)cc3n2Cc2ccccc2)cc(OC)c1OC [Compound 120, (1-Benzyl-6-chloro-1H-indol-2-yl)(3,4,5-trimethoxyphenyl)methanone] | – | – | > 10 µM | – | > 10 µM | > 10 µM | > 10 µM | > 10 µM | > 10 µM | > 10 µM | –
> 100 µM | > 100 µM | > 100 µM | 76 to 78 °C | O=S(=O)(c1ccccc1)n1c(Cc2cccc(-c3cc4ccccc4n3S(=O)(=O)c3ccccc3)c2)cc2ccccc21 [Compound 9, (1-Benzenesulfonyl-1H-indol-2-yl)-[3-(1-benzenesulfonyl-1H-indol-2-yl)phenyl]methane] | > 100 µM | – | – | – | – | – | – | – | – | – | > 100 µM
5.73 µM | 2.78 µM | 2.7 µM | – | O=C(c1ccc(F)cc1)c1cccc(-c2ccc3[nH]ccc3c2)c1 [Compound 125, (4-Fluoro-phenyl)-[3-(1H-indol-5-yl)-phenyl]-methanone] | 0.63 µM | – | – | – | – | – | – | – | – | – | –
16.2 µM | 3 µM | 4.6 µM | – | COc1cc(-c2cccc(C(=O)c3cc4ccccc4[nH]3)c2)cc(OC)c1OC [Compound 65, (1H-Indol-2-yl)-(3′,4′,5′-trimethoxy-biphenyl-3-yl)-methanone] | 4.1 µM | – | – | – | – | – | – | – | – | – | –
– | – | – | 171 to 173 °C | COc1cc(C(=O)c2cc3ccc(F)cc3n2S(=O)(=O)c2ccccc2)cc(OC)c1OC [Compound 106, (6-Fluoro-1-(phenylsulfonyl)-1H-indol-2-yl)(3,4,5-trimethoxyphenyl)methanone] | – | – | > 10 µM | – | > 10 µM | > 10 µM | > 10 µM | – | > 10 µM | > 10 µM | –

SMILES | IC50 [1] | IC50 [3] | IC50 [4] | melting point | IC50 [2] | IC50 [5] | IC50 [6] | IC50 ([7]; A-375, A375 melanoma) | IC50 [8] | IC50 [9] | IC50 [10] | IC50 [11] | IC50 ([5]; WM164, 48 h) | IC50 ([7]; A-375, 48 h, A375 melanoma) | IC50 [12]
COc1ccc2cc(C(=O)c3cc(OC)c(OC)c(OC)c3)[nH]c2c1 [Compound 114, (6-Methoxy-1H-indol-2-yl)(3,4,5-trimethoxyphenyl)methanone] | – | – | – | 167 to 169 °C | – | > 10 µM | > 10 µM | > 10 µM | > 10 µM | > 10 µM | > 10 µM | > 10 µM | – | – | –
COc1ccc2cc(C(=O)c3cc(OC)c(OC)c(OC)c3)n(S(=O)(=O)c3ccccc3)c2c1 [Compound 107, (6-Methoxy-1-(phenylsulfonyl)-1H-indol-2-yl)(3,4,5-trimethoxyphenyl)methanone] | – | – | – | 156 to 158 °C | – | > 10 µM | > 10 µM | 8.22 µM | 1.05 µM | > 10 µM | 2.66 µM | – | – | – | –
c1ccc2[nH]ccc2c1 [indole] | > 100 µM | > 100 µM | > 100 µM | – | > 100 µM | – | – | – | – | – | – | – | – | – | > 100 µM
